From patent US8993614B2, “Substituted pyrrolidine-2-carboxamides” (Hoffmann-La Roche Inc., priority 2012, dated 2015)

Legend:
in vivo = conditions: iv, 4.37 mg/kg
physchem = conditions: aqueous medium

COc1cc(C(=O)O)ccc1NC(=O)[C@@H]1N[C@@H](CC(C)(C)C)[C@](C#N)(c2ccc(Cl)cc2F)[C@H]1c1cccc(Cl)c1F [Compound B, 4-((2R,3S,4R,5S)-3-(3-chloro-2-fluorophenyl)-4-(4-chloro-2-fluorophenyl)-4-cyano-5-neopentylpyrrolidine-2-carboxamido)-3-methoxybenzoic acid]
AUC(0-inf) (in vivo): 21600 ng·h/mL | AUC(0-t) (in vivo): 20900 ng·h/mL | Cmax (in vivo): 4390 ng/mL | half-life (in vivo): 5.07 h | solubility (physchem): < 1 µg/mL
